Reference: ChEMBL document CHEMBL6153018, “Macrocycles and macrocyclization in anticancer drug discovery: Important pieces of the puzzle” (Eur J Med Chem, 2024)
Values after ≈ are worked out from the molar mass of the structure shown. Square brackets hold non-standard residues; d marks the D form. Peptide text beside a SMILES is read from it. Lys(Me2) = CN(C)CCCC[C@H](N)C(=O)O; NMeT = CN[C@H](C(=O)O)[C@@H](C)O; NMeA = CN[C@@H](C)C(=O)O

Legend:
[1] = in vitro; details: human, Caco-2
[2] = physchem; details: PBS buffer, pH 7.4
[3] = in vitro; details: dog, MDCK

SMILES	Papp A→B at 1 h [1] [×10⁻⁶ cm/s]	solubility [2] [µM]	Papp A→B at 2 h [3] [×10⁻⁶ cm/s]
C[C@@H]1NC(=O)[C@H](CCCCN)NC(=O)[C@H](Cc2ccccc2)NC(=O)[C@H](Cc2ccc(O)cc2)NC(=O)[C@H](CO)NC1=O (cyclo(ASYFK))	0.83	–	–
CC(C)C[C@@H]1NC(=O)[C@H]([C@@H](C)O)N(C)C(=O)[C@H]2CCCN2C(=O)[C@H](CC(C)C)NC(=O)[C@H](C)N(C)C(=O)[C@H](CC(C)C)NC(=O)[C@H]([C@@H](C)O)N(C)C(=O)[C@H]2CCCN2C(=O)[C@H](CC(C)C)NC(=O)[C@H](C)N(C)C1=O (cyclo(L[NMeA]L[dP][NMeT]L[NMeA]L[dP][NMeT]))	–	880 (≈ 922 µg/mL)	0.593
COC[C@@H]1NC(=O)[C@H](CC(N)=O)NC(=O)[C@H](CCCCN(C)C)NC(=O)[C@H](Cc2ccccc2)NC(=O)[C@H](Cc2ccc(OC)cc2)NC1=O (cyclo([Lys(Me2)]NS(Me)Y(Me)F))	5.55	–	–
